Values of other authors as cited in US20240165275A1, “STABLE FORMULATIONS OF INDOCYANINE GREEN” (PROVEPHARM LIFE SOLUTIONS, priority 2021, published 2024).

Columns and labels:
[1] = after 10 hours of storage in water and direct light
[2] = stored at 4° C. in the dark

Structure (SMILES): CC1(C)C(/C=C/C=C/C=C/C=C2\N(CCCCS(=O)(=O)[O-])c3ccc4ccccc4c3C2(C)C)=[N+](CCCCS(=O)(=O)[O-])c2ccc3ccccc3c21.[Na+] [ICG, Indocyanine green]
- reduction of absorbance at spectral peak [1]: 10%
- stability on storage [2]: stable for three days
- fluorescence intensity lost ([2]; three days): 20%
